# Experiments:
# [1] = system: inducing peptide construct; assay: ELISA of serum IgG antibody to the inducing (homologous) peptide construct in immunized rats; assay type: in vivo, Sprague Dawley rats; settings: for immunogenicity (percentage of animals responding and titer of responding sera): FIG. 1
# Experimental: (§1) Immunogenicity of Peptides: Sprague Dawley CD strain 43 day-old male rats (Charles River Laboratories) were used for injection. Six groups of 4-5 rats were injected subcutaneously in the vicinity of the salivary glands with 50 μg each of GGY, AND, SAND or CAT peptide constructs, 10 μg of GTF, or sham-immunized with buffer alone. The initial injection included complete Freund adjuvant (CFA; Difco); two subsequent injections at 21-day intervals included incomplete Freund adjuvant. Animals were bled prior to injection and 14-21 days after each injection. Serum from coagulated and centrifuged blood was stored frozen at −20° C. until use.
# (§2) ELISA: Serum IgG and salivary IgA antibodies were tested by enzyme-linked immunosorbent assay (ELISA). Polystyrene microtiter plates (Flow Laboratories) were coated with […] of each peptide construct or 0.5 μg of S. sobrinus GTF. Antibody activity was then measured by incubation with 1:100 to 1:10^6 dilutions of sera, or 1:4 to 1:32 dilutions of saliva. Plates were then developed for IgG antibody rabbit anti-rat IgG followed in sequence by alkaline phosphatase goat anti-rabbit IgG (Biosource Inc.) and p-nitrophenylphosphate (Sigma). A mouse monoclonal reagent to rat α chain (Zymed, South San Francisco, Calif.) was used with biotinylated goat anti-mouse IgG (TAGO, Inc., Burlingame, Calif.) and avidin-alkaline phosphatase (Cappel) to reveal levels of salivary IgA antibody to peptides. Reactivity was recorded as absorbance (A405 nm) in a micro plate reader (Biotek Instruments). Data are reported as absorbance (A405 nm), reciprocal titer, or as ELISA units (EU) which were calculated relative to the levels of appropriate reference sera or salivas from Sprague Dawley rats thrice immunized with the respective peptide construct. Dilutions of 1:12,800 and 1:6,400 (A405 nm approximately 1.0) were considered 100 EU for serum IgG to the GGY and AND constructs, respectively. Dilutions of 1:32 were considered 100 EU for salivary IgA to both GGY and AND constructs.
# (§3) Two experiments were performed. Groups (n=11-12) of 23-26 day-old rats were subcutaneously (sc) injected in the salivary gland vicinity with (experiment 1) GGY (50 μg), AND (50 μg) or GTF(10 μg), or phosphate buffered saline (control animals), or (experiment 2) GGY (50 ;μg) or PBS. Each antigen was incorporated with complete Freund adjuvant in both experiments. Eight (experiment 1) or 14 (experiment 2) days later, rats were reinjected with PBS or with the same antigen and dose in incomplete Freund adjuvant. Six (experiment 1) or 12 (experiment 2) days after the second injection, animals were bled from the tail vein, and saliva was collected after injection of pilocarpine (1.0 mg/100 g body weight). Fourteen (experiment 1) or 11 (experiment 2) days after the second injection, all rats were orally infected with approximately 10^8 S. mutans for 3 consecutive days. Both experiments were terminated 63 days after initial infection.
# (§4) Two experiments were performed to measure the effect of immunization with the eight-branched GGY and AND peptide constructs on experimental dental caries in the Sprague-Dawley rat. In the first experiment, groups of rats were immunized with GGY or AND peptide constructs. In the second experiment groups of rats were immunized only with the GGY peptide construct. Pre-infection sera and salivas were collected for antibody measurement in 39 day old rats in experiment 1 (6 days after the second injection) and 51 day old rats in experiment 2 (12 days after the second injection). In the GGY-immunized rat groups, IgG antibody levels to GGY (experiment 1=21.9+17.8 EU; experiment 2=108.0±4.0 EU) were elevated above those of the sham-immunized groups (experiment 1=1.7±0.2 EU; experiment 2=4.0±3.0 EU) in both experiments and reached statistical significance (p<0.002) in experiment 2.
# S. sobrinus GTF [2] = assay: Antibody inhibition of glucan synthesis (filter assay, 14C glucose incorporation into water-insoluble glucan); assay type: biochemical, S. sobrinus strain 6715
# From the text: (§5) Glucosyltransferases: Glucosyltransferases (GTF) from S. sobrinus strain 6715 were purified from culture supernatants after bacterial growth in glucose-containing defined media, as described in Taubman et al. (J. Oral Pathol. 17:466-470 (1988)). Enzymes were separated from other culture supernatant proteins by affinity chromatography on Sephadex G-100 (Pharmacia Fine Chemicals), using 6M guanidine HCl as the eluting solvent. GTFs were then obtained from the guanidine HCl eluate by FPLC chromatography on Superose 6 (Pharmacia) using 6M guanidine for elution. GTF preparations contained a mixture of GTF-I, GTF-Sd, and GTF-Si.
# Antibody Inhibition of Glucan Synthesis: Selected rat sera were evaluated for their ability to inhibit glucan synthesis catalyzed by S. sobrinus GTF, using a filter assay. Ten μl volumes of sera (1:100 dilutions in 0.02M sodium phosphate buffered saline and 0.02% sodium azide [PBSA], pH 6.5) were preincubated with the respective GTF for 1 hour at 37° C. in a total volume of 0.04 ml PBSA. Then 1.7 mg sucrose, 44 nCi of [^14C-glucose]-sucrose (approximately 100,000 cpm) were added in 0.2 ml PESA in the presence of 37 μg of dextran T10 (Pharmacia). Incubation proceeded for 18 hours at 37° C., after which water-insoluble glucan was collected on Whatman GF/F glass fiber filters, washed with PBSA, and radioactivity determined as described in Smith et al. (Infect. Immunity 62:5470-5476 (1994)).
# GGY peptide construct = molecular target: T1, GGY peptide construct (Streptococcus mutans serotype c, UniProt P08987); assay: Cross-reactivity ELISA, plates coated with GGY peptide construct; assay type: binding; settings: day 63 sera; FIG. 4
# T1 construct: GGY and AND were 19-mer peptides; purchased Applied Diagnostics, Foster City, Calif; host or cells: chemical solid phase synthesis
# Experimental: as §1
# (§6) ELISA: Serum IgG and salivary IgA antibodies were tested by enzyme-linked immunosorbent assay (ELISA). Polystyrene microtiter plates (Flow Laboratories) were coated with […] of each peptide construct or 0.5 μg of S. sobrinus GTF. Antibody activity was then measured by incubation with 1:100 to 1:10^6 dilutions of sera, or 1:4 to 1:32 dilutions of saliva. […] Reactivity was recorded as absorbance (A405 nm) in a micro plate reader (Biotek Instruments). Data are reported as absorbance (A405 nm), reciprocal titer, or as ELISA units (EU) which were calculated relative to the levels of appropriate reference sera or salivas from Sprague Dawley rats thrice immunized with the respective peptide construct. […]
# [3] = system: inducing peptide construct; assay: ELISA of salivary IgA antibody to the inducing (homologous) peptide construct in immunized rats; assay type: in vivo, Sprague Dawley rats; settings: for rats with significant levels of salivary IgA antibody: GGY- and AND-injected rats counted together
# Experimental: as §1, §2, §3, §4
# S. mutans SJ32 = assay: Protection experiments: caries assessment (modified Keyes method) after S. mutans infection; assay type: in vivo, Sprague-Dawley rats; settings: both experiments
# From the text: Experimental Protocol for Protection Experiments: Animals used in the present experiments were derived from germ-free Sprague-Dawley rats that had been reared in the isolator facility of Charles River Laboratories, Wilmington, Mass. (Area 051). […] These rats served as initial breeding stock for dams used in these experiments and were regularly monitored for absence of mutans streptococci. The progeny of the dams used for the present experiments were weaned at approximately 21 days and were subsequently fed high sucrose Diet 2000.
# as §3
# Caries assessment: The extent and depth of carious lesions in all rat molar teeth (caries score) were microscopically evaluated by a modified Keyes method as previously described (Taubman et al., J. Immunol. 118:710-720 (1977)). Caries scores were determined separately on smooth and on sulcal dental surfaces.
# S. sobrinus GTF [4] = assay: ELISA of serum IgG antibody reacting with intact S. sobrinus GTF; assay type: in vivo; settings: 63 day sera, FIG. 3; for IgG antibody reactivity with intact S. sobrinus GTF: n=4-5 per group
# From the text: as §5, §1, §2
# CAT peptide construct = molecular target: T2, CAT peptide construct (Streptococcus mutans serotype c, UniProt P08987); assay: Cross-reactivity ELISA, plates coated with CAT peptide construct; assay type: binding; settings: day 63 sera; FIG. 4
# T2 construct: residues 442-462 of S. mutans GTF-B; purchased Applied Diagnostics, Foster City, Calif; host or cells: chemical solid phase synthesis
# Experimental: as §1, §6
# AND peptide construct = molecular target: T3, AND peptide construct (Streptococcus mutans serotype c, UniProt P08987); assay: Cross-reactivity ELISA, plates coated with AND peptide construct; assay type: binding; settings: day 63 sera; FIG. 4
# T3 construct: GGY and AND were 19-mer peptides; purchased Applied Diagnostics, Foster City, Calif; host or cells: chemical solid phase synthesis
# T3 sequence (P08987 whole entry, looked up): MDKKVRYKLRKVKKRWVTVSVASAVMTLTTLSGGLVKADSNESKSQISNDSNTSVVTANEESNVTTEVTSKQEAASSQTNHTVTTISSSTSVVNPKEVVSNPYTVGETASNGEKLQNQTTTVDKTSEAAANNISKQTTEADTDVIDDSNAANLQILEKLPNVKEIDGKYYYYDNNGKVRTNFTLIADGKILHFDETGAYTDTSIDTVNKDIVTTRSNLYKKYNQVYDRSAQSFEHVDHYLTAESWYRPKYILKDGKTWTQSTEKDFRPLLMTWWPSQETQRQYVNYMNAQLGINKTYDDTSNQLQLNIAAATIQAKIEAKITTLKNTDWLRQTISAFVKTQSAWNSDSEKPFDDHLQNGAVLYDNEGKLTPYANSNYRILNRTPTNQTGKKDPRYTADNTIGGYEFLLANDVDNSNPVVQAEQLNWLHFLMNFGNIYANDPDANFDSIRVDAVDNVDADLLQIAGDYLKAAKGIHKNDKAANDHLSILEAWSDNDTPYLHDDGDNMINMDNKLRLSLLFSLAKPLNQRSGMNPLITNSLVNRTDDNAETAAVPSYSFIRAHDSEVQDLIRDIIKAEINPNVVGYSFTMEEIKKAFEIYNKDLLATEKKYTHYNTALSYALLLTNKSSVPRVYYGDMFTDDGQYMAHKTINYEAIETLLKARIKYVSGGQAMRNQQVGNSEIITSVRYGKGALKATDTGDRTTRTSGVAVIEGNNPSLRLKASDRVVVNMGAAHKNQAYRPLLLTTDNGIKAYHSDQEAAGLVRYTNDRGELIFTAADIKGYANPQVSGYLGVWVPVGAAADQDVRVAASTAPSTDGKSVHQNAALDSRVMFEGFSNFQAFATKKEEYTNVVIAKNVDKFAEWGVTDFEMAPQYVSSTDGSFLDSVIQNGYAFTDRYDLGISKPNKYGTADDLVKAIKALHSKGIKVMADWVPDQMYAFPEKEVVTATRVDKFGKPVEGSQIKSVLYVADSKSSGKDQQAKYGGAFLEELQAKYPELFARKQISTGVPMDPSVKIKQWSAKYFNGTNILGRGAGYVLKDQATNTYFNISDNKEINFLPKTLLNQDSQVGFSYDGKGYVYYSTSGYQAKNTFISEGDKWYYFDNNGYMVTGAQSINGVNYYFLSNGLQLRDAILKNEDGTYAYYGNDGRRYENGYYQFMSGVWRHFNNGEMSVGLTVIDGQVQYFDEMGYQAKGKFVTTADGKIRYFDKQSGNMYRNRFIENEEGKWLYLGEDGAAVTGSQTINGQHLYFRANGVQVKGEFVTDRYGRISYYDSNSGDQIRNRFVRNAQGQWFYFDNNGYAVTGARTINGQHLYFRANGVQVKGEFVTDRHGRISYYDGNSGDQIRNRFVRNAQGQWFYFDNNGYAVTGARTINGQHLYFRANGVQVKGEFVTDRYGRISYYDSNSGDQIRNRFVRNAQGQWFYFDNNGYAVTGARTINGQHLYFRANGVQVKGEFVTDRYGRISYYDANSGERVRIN
# Experimental: as §1, §6
# [5] = system: experimental dental caries; settings: Taubman et al. Infect. Immun. 63:3088-3093 (1995); protocol similar to experiment 1; cited from earlier work
# anti-GGY serum = assay: Epitope mapping by ELISA inhibition, anti-GGY serum on GGY-coated plates; assay type: binding, rat; settings: anti-GGY serum preincubated with heptamer or intact peptide; FIG. 8
# Experimental: Epitope Mapping: B cell epitopes were mapped on the GGY and AND peptides by an ELISA inhibition technique. Anti-GGY or anti-AND sera were preincubated with 13 separate heptamers representing the incremental peptide sequence of the respective peptide, or with intact peptide, followed by the conventional ELISA with intact peptide-coated plates. B cell epitopes were indicated by a significant reduction in absorbance.
# [6] = protection experiment 1, pre-infection
substance,measurement,setting,value
ANDVDNSNPVVQ [SAND],immunogenicity (percentage of animals responding and titer of responding sera),[1]; immunogenicity experiment,weakly immunogenic
ANDVDNSNPVVQAEQLNWL,inhibition of formation of water-insoluble glucan from sucrose by S. sobrinus GTF (in words),"S. sobrinus GTF [2]; 63 day sera from injected rats, AND p<0.01, FIG. 5",inhibited GTF activity
same,level of inhibitory activity compared with other immunogens,"S. sobrinus GTF [2]; 63 day sera, AND vs CAT p<0.02",exceeded that observed with sera from rats similarly immunized with CAT
same,reaction of antisera with the GGY peptide construct,GGY peptide construct,reaction with antisera induced by AND was observed
same,rats with significant levels of salivary IgA antibody,[3]; day 21 (one injection),7/9
same,rats with significant levels of salivary IgA antibody,[3]; day 63 (three injections),8/9
same,salivary IgA antibody levels to the AND construct,[3]; [6],not significantly elevated
same,"mean and median total, smooth surface, and occlusal caries scores vs sham-injected group",S. mutans SJ32,lower than the respective scores of the sham-injected group
same,IgG antibody reactivity with intact S. sobrinus GTF,S. sobrinus GTF [4],significant reactivity with GTF
same,GTF reactivity compared with antibody induced by the other peptides,S. sobrinus GTF [4],significantly more reactive with GTF
same,immunogenicity (percentage of animals responding and titer of responding sera),[1]; immunogenicity experiment,at least as high as observed for the positive control CAT peptide
same,effect of subsequent immunization on serum IgG titers,"[1]; immunogenicity experiment, day 21 (one injection) vs day 63 (three injections)",increased serum IgG titers in all AND-injected rats
same,serum IgG antibody to the inciting antigen after the first injection,"[1]; immunogenicity experiment, rats 43 days old at start, 50 μg sc in CFA, day 21",induced serum IgG antibody to the inciting antigen after the first injection in all rats
same,Serum IgG antibody levels to the AND construct,[1]; [6],not significantly elevated
same,levels of serum IgG antibody (in words),"[1]; protection experiment 1, weanling rats, two injections eight days apart, bled 14 days after onset (day 39 of life)",little detectable antibody
same,reaction of serum IgG antibody with the CAT peptide,CAT peptide construct,low but significant reaction
"CAT: 21-mer peptide containing Asp 451, residues 442-462 of S. mutans GTF-B; positive control (DANFDSIRVDAVDNVDADLLQ) [reference compound]",reaction of serum IgG antibody with the AND peptide construct,AND peptide construct,significant reaction
same,IgG antibody reactivity with intact S. sobrinus GTF,S. sobrinus GTF [4],significant reactivity with GTF
same,protective effect against experimental dental caries,[5],a significant protective effect was shown
FLLANDV,inhibition of GGY antibody binding to intact peptide-coated plates,anti-GGY serum,significantly inhibited
LLANDVD,inhibition of GGY antibody binding to intact peptide-coated plates,anti-GGY serum,significantly inhibited

# From patent US20010048926A1, “SYNTHETIC PEPTIDE VACCINES FOR DENTAL CARIES” (priority 1992, published 2001)
